Reference: patent publication US20250230193A1, “CYCLIC COMPOUND HAVING SELECTIVE KRAS INHIBITORY EFFECT ON HRAS AND NRAS” (CHUGAI SEIYAKU KABUSHIKI KAISHA, priority 2022, published 2025)

Tests used:
[1] = target: GDP-bound NRAS wild-type protein (Homo sapiens, UniProt P01111); experiment: Binding to NRAS by surface plasmon resonance (SPR), Single Cycle Kinetics
[2] = target: GDP-bound HRAS wild-type protein (Homo sapiens, UniProt P01112); experiment: Binding to HRAS by surface plasmon resonance (SPR), Single Cycle Kinetics
Chain of GDP-bound HRAS wild-type protein (P01112 whole entry): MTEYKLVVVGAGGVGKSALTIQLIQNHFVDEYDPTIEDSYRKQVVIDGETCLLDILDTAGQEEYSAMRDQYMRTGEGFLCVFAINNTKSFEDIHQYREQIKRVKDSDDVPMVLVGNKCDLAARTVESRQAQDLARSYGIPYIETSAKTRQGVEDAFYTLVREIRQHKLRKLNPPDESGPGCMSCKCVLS

[3] = SPR, GDP-bound NRAS wild-type vs GDP-bound KRAS wild-type
[4] = SPR, GDP-bound HRAS wild-type vs GDP-bound KRAS wild-type
[5] = KD ratio, GDP-bound NRAS wild-type vs GDP-bound KRAS wild-type, SPR
[6] = KD ratio, GDP-bound HRAS wild-type vs GDP-bound KRAS wild-type, SPR

Chain of GDP-bound NRAS wild-type protein (P01111 whole entry): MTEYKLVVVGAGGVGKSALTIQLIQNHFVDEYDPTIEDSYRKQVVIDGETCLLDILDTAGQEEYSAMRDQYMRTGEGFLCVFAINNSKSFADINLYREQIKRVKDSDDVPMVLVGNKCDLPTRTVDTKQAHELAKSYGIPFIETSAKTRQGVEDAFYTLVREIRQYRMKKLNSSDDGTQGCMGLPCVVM

CCC[C@H]1C(=O)N[C@@H]([C@@H](C)CC)C(=O)N(C)CC(=O)N(C)[C@H]2C/C=C\CCN(C2=O)[C@@H](Cc2ccc(C)cc2)C(=O)N(C)CC(=O)N[C@@H](CCc2cc(F)c(C(F)(F)F)c(F)c2)C(=O)N2C[C@H](CC)C[C@H]2C(=O)NC2(CCCC2)C(=O)N(C)[C@@H](C2CCCC2)C(=O)N(C)[C@H](C(=O)N(C)C)CC(=O)N1C [PP2216]
NRAS/KRAS (ratio of KD value with respect to NRAS to KD value with respect to KRAS) [1, 3]: A (a compound having 10 or more and less than 20 is denoted as A)
HRAS/KRAS (ratio of KD value with respect to HRAS to KD value with respect to KRAS) [2, 4]: A (a compound having 10 or more and less than 20 is denoted as A)

CCO[C@@H]1C[C@H]2C(=O)NC3(CC(C)(C)C3)C(=O)N(C)[C@@H](C(CC)CC)C(=O)N(C)[C@H](C(=O)N(C)C)CC(=O)N(C)[C@@H](CC(C)C)C(=O)N[C@@H]([C@@H](C)CC)C(=O)N(C)CC(=O)N(C)[C@H]3C/C=C\CCN(C3=O)[C@@H](Cc3ccc(C)cc3)C(=O)N(C)CC(=O)N[C@@H](CCc3ccc(C(F)(F)F)c(OC)c3)C(=O)N2C1 [PP2168]
NRAS/KRAS (ratio of KD value with respect to NRAS to KD value with respect to KRAS) [1, 3]: A (a compound having 10 or more and less than 20 is denoted as A)
HRAS/KRAS (ratio of KD value with respect to HRAS to KD value with respect to KRAS) [2, 4]: A (a compound having 10 or more and less than 20 is denoted as A)

CC[C@H](C)[C@@H]1NC(=O)[C@H](CC(C)C)N(C)C(=O)C[C@@H](C(=O)N2CCOCC2)N(C)C(=O)[C@H](C2CCCC2)N(C)C(=O)C2(CCOCC2)NC(=O)[C@@H]2CCCN2C(=O)[C@H](CCc2cc(F)c(C(F)(F)F)c(F)c2)NC(=O)CN(C)C(=O)[C@H](Cc2ccc(C(F)(F)F)cc2)N2CCCCC[C@@H](C2=O)N(C)C(=O)CN(C)C1=O [PP0502]
NRAS/KRAS (ratio of KD value with respect to GDP-bound NRAS wild-type protein to KD value with respect to KRAS) ([1]; SPR): A (a compound having 10 or more and less than 20 is denoted as A)
HRAS/KRAS (ratio of KD value with respect to GDP-bound HRAS wild-type protein to KD value with respect to KRAS) ([2]; SPR): B (a compound having 3 or more and less than 10 is denoted as B)

C#CC[C@H]1C(=O)N[C@@H]([C@@H](C)CC)C(=O)N(C)CC(=O)N(C)[C@H]2C/C=C\CCN(C2=O)[C@@H](Cc2ccc(C(F)(F)F)cc2)C(=O)N(C)CC(=O)N[C@@H](CCc2ccc(C(F)(F)F)c(OC)c2)C(=O)N2CC[C@H]2C(=O)NC2(CCC2)C(=O)N(C)[C@@H](C2CCCC2)C(=O)N(C)[C@H](C(=O)N(C)C)CC(=O)N1C [PP2911]
NRAS/KRAS (ratio of KD value with respect to GDP-bound NRAS wild-type protein to KD value with respect to KRAS) ([1]; class symbols): A (a compound having 10 or more and less than 20 is denoted as A)
HRAS/KRAS (ratio of KD value with respect to GDP-bound HRAS wild-type protein to KD value with respect to KRAS) ([2]; class symbols): B (a compound having 3 or more and less than 10 is denoted as B)

CC[C@H](C)[C@@H]1NC(=O)[C@H](CC(C)C)N(C)C(=O)C[C@@H](C(=O)N2CCOCC2)N(CC)C(=O)[C@H](C2CCCC2)N(C)C(=O)C2(CCC2)NC(=O)[C@@H]2CC(F)(F)CN2C(=O)[C@H](CCc2cc(F)c(C(F)(F)F)c(F)c2)NC(=O)CN(C)C(=O)[C@H](Cc2ccc(C(F)(F)F)cc2)N2CCCCC[C@@H](C2=O)N(C)C(=O)CN(C)C1=O [PP0954]
NRAS/KRAS (ratio of KD value with respect to NRAS to KD value with respect to KRAS) [1, 5]: A (a compound having 10 or more and less than 20 is denoted as A)
HRAS/KRAS (ratio of KD value with respect to HRAS to KD value with respect to KRAS) [2, 6]: A (a compound having 10 or more and less than 20 is denoted as A)

CC[C@H](C)[C@@H]1NC(=O)[C@H](CC(C)C)N(C)C(=O)C[C@@H](C(=O)N2C3CCC2COC3)N(C)C(=O)[C@H](C2CCCC2)N(C)C(=O)C2(CCCC2)NC(=O)[C@@H]2CCCN2C(=O)[C@H](CCc2cc(F)c(C(F)(F)F)c(F)c2)NC(=O)CN(C)C(=O)[C@H](Cc2ccc(C(F)(F)F)cc2)N2CCCCC[C@@H](C2=O)N(C)C(=O)CN(C)C1=O [PP0511]
NRAS/KRAS (ratio of KD value with respect to GDP-bound NRAS wild-type protein to KD value with respect to KRAS) ([1]; SPR): A (a compound having 10 or more and less than 20 is denoted as A)
HRAS/KRAS (ratio of KD value with respect to GDP-bound HRAS wild-type protein to KD value with respect to KRAS) ([2]; SPR): B (a compound having 3 or more and less than 10 is denoted as B)

CCO[C@@H]1C[C@H]2C(=O)NC3(CC(C)(C)C3)C(=O)N(C)[C@@H](C3CCCC3)C(=O)N(C)[C@H](C(=O)N(C)C)CC(=O)N(C)[C@@H](C)C(=O)N[C@@H]([C@@H](C)CC)C(=O)N(C)CC(=O)N(C)[C@H]3C/C=C\CCN(C3=O)[C@@H](Cc3ccc(C(F)(F)F)cc3)C(=O)N(C)CC(=O)N[C@@H](CCc3ccc(C(F)(F)F)c(OC)c3)C(=O)N2C1 [PP1674]
NRAS/KRAS (ratio of KD value for NRAS to KD value for KRAS) [1, 5]: A (a compound having 10 or more and less than 20 is denoted as A)
HRAS/KRAS (ratio of KD value for HRAS to KD value for KRAS) [2, 6]: A (a compound having 10 or more and less than 20 is denoted as A)
